Converted amounts (≈) assume the structure as drawn.
What was measured:
[1] = test system: Mycobacterium tuberculosis; experiment: Antimycobacterial activity against rifampicin-resistant Mycobacterium tuberculosis; assay type: functional
[2] = test system: Mycobacterium tuberculosis; experiment: Antimycobacterial activity against isoniazid-resistant Mycobacterium tuberculosis; assay type: functional

Row | SMILES | MIC [1] | MIC [2]
1 | Cc1ccc(-n2c(-c3ccc(Cl)cc3)cc(CN3CCSCC3)c2C)cc1 | 0.5 mg/L (≈ 1.26 µM) | > 16 mg/L
2 | Cc1ccc(-c2cc(CN3CCSCC3)c(C)n2-c2ccc(Cl)cc2)cc1 | 0.5 mg/L (≈ 1.26 µM) | 16 mg/L (≈ 40.3 µM)
3 | Cc1c(CN2CCSCC2)cc(-c2ccc(C(C)C)cc2)n1-c1ccc(F)cc1 | 0.25 mg/L (≈ 0.612 µM) | > 16 mg/L
4 | Cc1c(CN2CCSCC2)cc(-c2ccc(C(C)C)cc2)n1-c1ccc(Cl)cc1 | 0.125 mg/L (≈ 0.294 µM) | 8 mg/L (≈ 18.8 µM)
5 | Cc1ccc(-c2cc(CN3CCSCC3)c(C)n2-c2ccc(F)cc2)cc1 | 0.5 mg/L (≈ 1.31 µM) | 32 mg/L (≈ 84.1 µM)
6 | Cc1c(CN2CCSCC2)cc(-c2ccc(Cl)cc2)n1-c1ccc(C(C)C)cc1 | 0.25 mg/L (≈ 0.588 µM) | > 16 mg/L
7 | CCc1ccc(-c2cc(CN3CCSCC3)c(C)n2-c2ccc(Cl)cc2)cc1 | 0.25 mg/L (≈ 0.608 µM) | 16 mg/L (≈ 38.9 µM)
8 | CCCc1ccc(-c2cc(CN3CCSCC3)c(C)n2-c2ccc(Cl)cc2)cc1 | 0.125 mg/L (≈ 0.294 µM) | > 16 mg/L
9 | CO[C@H]1/C=C/O[C@@]2(C)Oc3c(C)c(O)c4c(O)c(c(/C=N/N5CCN(C)CC5)c(O)c4c3C2=O)NC(=O)/C(C)=C\C=C\[C@H](C)[C@H](O)[C@@H](C)[C@@H](O)[C@@H](C)[C@H](OC(C)=O)[C@@H]1C [RIFAMPIN] | > 64 mg/L | 0.25 mg/L (≈ 0.304 µM)
10 | CCc1ccc(-n2c(-c3ccc(Cl)cc3)cc(CN3CCSCC3)c2C)cc1 | 0.5 mg/L (≈ 1.22 µM) | 16 mg/L (≈ 38.9 µM)
11 | NNC(=O)c1ccncc1 [ISONIAZID] | 0.25 mg/L (≈ 1.82 µM) | > 16 mg/L
12 | [H]/N=C(/N)N[C@H]1[C@H](O)[C@@H](O)[C@H](O[C@@H]2O[C@@H](C)[C@](O)(C=O)[C@H]2O[C@@H]2O[C@@H](CO)[C@H](O)[C@@H](O)[C@@H]2NC)[C@@H](N/C(N)=N\[H])[C@@H]1O (stereo in doubt) [STREPTOMYCIN] | 4 mg/L (≈ 6.88 µM) | 16 mg/L (≈ 27.5 µM)
13 | Cc1c(CN2CCN(C)CC2)cc(-c2ccc(Cl)cc2)n1-c1ccc(Cl)cc1 | 1 mg/L (≈ 2.41 µM) | 2 mg/L (≈ 4.83 µM)
14 | CCCc1ccc(-n2c(-c3ccc(Cl)cc3)cc(CN3CCSCC3)c2C)cc1 | 0.25 mg/L (≈ 0.588 µM) | > 16 mg/L

— ChEMBL document CHEMBL1150412, “1,5-Diphenylpyrrole derivatives as antimycobacterial agents. Probing the influence on antimycobacterial activity of lipophilic substituents at the phenyl rings” (J Med Chem, 2008)
